Assay results from publication PMC9501172, “Gallic Acid Alkyl Esters: Trypanocidal and Leishmanicidal Activity, and Target Identification via Modeling Studies” (Molecules, 2022).
Values after ≈ are worked out from the molar mass of the structure shown. Read-outs that look alike come from different tables or passages of the source.

Tests used:
[1] = system: promastigotes of L. major; assay: Leishmanicidal activity, resazurin viability assay; type: cell-based, Leishmania major; conditions: for GI50: values in brackets; for inhibition at 100 µM: read-out: Growth Inhibition (% at 100 μM); for leishmanicidal activity: in words
Experimental: (§1) Trypanocidal, leishmanicidal, and cytotoxic activities of gallic acid alkyl esters were determined with bloodstream forms of T. brucei (clone 427-221a), promastigotes of L. major (strain MHOM/IL/81/Friedlin [51]), and human myeloid HL-60 cell, respectively. The viability of cells was evaluated with the vital dye resazurin as previously described with some modifications. Cells were seeded in 96-well plates in a final volume of 200 μL Baltz medium (T. brucei bloodstream forms and HL-60 cells) or Schneider’s insect medium (L. major promastigotes) supplemented with 16.7% and 10% fetal bovine serum, respectively. Test compounds were assayed at tenfold dilutions starting from 100 μM down up to 100 nM in the presence of 0.9% DMSO. Wells containing medium with 0.9% DMSO alone served as controls. The initial cell densities were 1 × 10^4/mL for T. brucei bloodstream forms, 2.5 × 10^5/mL for L. major promastigotes, and 5 × 10^4/mL for HL-60 cells. The cultures were incubated at 37 °C (T. brucei bloodstream forms and HL-60 cells) and 27 °C (L. major promastigotes) in a humidified atmosphere containing 5% CO2. After 24 h of incubation, 20 µL of a 0.5 mM resazurin solution prepared in sterile PBS was added to each well, and the cultures were incubated for another 48 h. Then, the absorbance of each well was read on a BioTek ELx808 microplate reader using a test wavelength of 570 nm and a reference wavelength of 630 nm. The 50% growth inhibition (GI50) value, i.e., the concentration of a compound necessary to reduce the growth rate of cells by 50% compared to the control, was determined by linear interpolation. The minimum inhibitory concentration (MIC) value, i.e., the concentration of a compound at which all cells were killed, was determined microscopically.

[2] = system: bloodstream forms of T. brucei; assay: Trypanocidal activity, resazurin viability assay; type: cell-based, Trypanosoma brucei; conditions: for GI50 / MIC: Trypanosoma brucei; for MIC: concentration at which all cells were killed, determined microscopically
Experimental: as §1

[3] = system: human myeloid HL-60 cells; assay: General cytotoxicity, resazurin viability assay; type: cell-based; conditions: for cytotoxicity against the human cells: HL-60, in words; for GI50 / MIC: Homo sapiens; for GI50: HL-60, 72 h, resazurin, 24 h + 48 h; for MIC: concentration at which all cells were killed, determined microscopically
Experimental: as §1

HL-60 / T. brucei = assay: Selectivity: ratio of cytotoxic to trypanocidal activity; type: cell-based, Trypanosoma brucei; conditions: for GI50 Ratio: GI50(HL-60)/GI50(T. brucei); for MIC Ratio: MIC(HL-60)/MIC(T. brucei)
Experimental: as §1

[4] = system: T. brucei bloodstream forms; assay: Motility assay with glucose or glycerol as substrate; type: cell-based, Trypanosoma brucei; conditions: 55 mM glucose, compound 200 μM, PBS
Experimental: A culture of bloodstream forms of T. brucei was divided into two equal portions (9 mL) and collected by centrifugation. The cell pellets were resuspended in 1 mL PBS containing 55 mM glucose or 55 mM glycerol. After subsequent centrifugation, the cell pellets were resuspended again in PBS/55 mM glucose and PBS/55 mM glycerol, respectively, and the cell density was adjusted to 2 × 10^6/mL. Then, 100 μL of trypanosomes were mixed with 100 μL PBS/55 mM glucose or 100 μL PBS/55 mM glycerol containing gallic acid alkyl esters at a concentration of 400 μM, giving a final concentration of the esters in the assay of 200 μM. The final concentration of DMSO in each test was 0.9%. The motility of the trypanosomes was examined under the microscope.

Vero cells [5] = assay: Cytotoxicity against Vero cells quoted from the literature; type: cell-based; conditions: for times Vero cells are less sensitive compared with HL-60 cells: GI50(Vero) vs GI50(HL-60); for selectivity: using the Vero cell cytotoxicity as the basis, relative to trypanocidal activity
Vero cells [6] = system: Vero cells; set-up: method as in PMID 18797755; conditions: cited from earlier work
T. brucei = conditions: cited from earlier work
[7] = system: murine B-lymphoma WEHI-231 cells; set-up: method as in PMID 9466819; conditions: cited from earlier work
[8] = 72 h, bloodstream forms clone 427-221a, resazurin, 24 h + 48 h, read-out: T. brucei GI50
[9] = bloodstream forms clone 427-221a
[10] = T. brucei bloodstream forms, GI50 expressed in μg/mL, read-out: GI50
[11] = trypanocidal activity of related phenolic esters

Row | SMILES | MIC ([1]; Leishmania major) | GI50 [2, 8] | MIC [2, 9] | GI50 [3] | MIC [3] | inhibition at 100 µM ([1]; Leishmania major) | GI50 Ratio (HL-60 / T. brucei) | MIC Ratio (HL-60 / T. brucei) | Motility after 5 min [4] | also measured
1 | C[C@@H]1[C@H](O)[C@@H](C)/C=C/C=C/C=C/C=C/C=C/C=C/C=C/[C@H](O[C@@H]2O[C@H](C)[C@@H](O)[C@H](N)[C@@H]2O)C[C@@H]2O[C@](O)(C[C@@H](O)C[C@@H](O)[C@H](O)CC[C@@H](O)C[C@@H](O)CC(=O)O[C@H]1C)C[C@H](O)[C@H]2C(=O)O [Amphotericin B, reference compound] | 0.1 µM (≈ 0.0924 µg/mL) | – | – | – | – | – | – | – | – | inhibition at 10 µM ([1]; Leishmania major, at 10 μM, read-out: Growth Inhibition (%)): 100%; GI50 ([1]; Leishmania major): 0.04 µM
2 | COC(=O)c1cc(O)c(O)c(O)c1 [Compound 1, Gallic acid methyl ester] | > 100 µM | 24.5 ± 4.5 µM | 100 µM (≈ 18.4 µg/mL) | > 100 µM | > 100 µM | 2% | >4.1 | >1 | + + + | cytotoxicity against the human cells [3]: no cytotoxicity
3 | CCOC(=O)c1cc(O)c(O)c(O)c1 [Compound 2, Gallic acid ethyl ester] | > 100 µM | 27.9 ± 2.4 µM | 100 µM (≈ 19.8 µg/mL) | > 100 µM | > 100 µM | 0% | >3.6 | >1 | + + + | cytotoxicity against the human cells [3]: no cytotoxicity; leishmanicidal activity [1]: no leishmanicidal activity
4 | CC(C)OC(=O)c1cc(O)c(O)c(O)c1 [Compound 3, Gallic acid isopropyl ester] | > 100 µM | 8.4 ± 2.2 µM | 100 µM (≈ 21.2 µg/mL) | 87.9 ± 8.2 µM | > 100 µM | 34% | 10.5 | >1 | + + + | –
5 | CCCOC(=O)c1cc(O)c(O)c(O)c1 [Compound 4, Gallic acid propyl ester] | 100 µM (≈ 21.2 µg/mL) | ~3 µM | 10 µM (≈ 2.12 µg/mL) | 82 ± 8.2 µM | > 100 µM | 61% | – | >10 | + + + | times less active compared with suramin ([2]; T. brucei bloodstream forms): 10–100 times; GI50 [2, 10]: 0.63 to 0.78 µg/mL; GI50 ([1]; Leishmania major): 50.4 µM; times Vero cells are less sensitive compared with HL-60 cells (Vero cells [5]): 8.7 times; selectivity (Vero cells [5]): > 100; GI50 (Vero cells [6]): 713 µM
6 | CCCCOC(=O)c1cc(O)c(O)c(O)c1 [Compound 5, Gallic acid butyl ester] | 100 µM (≈ 22.6 µg/mL) | ~3 µM | 10 µM (≈ 2.26 µg/mL) | 74.8 ± 4.5 µM | > 100 µM | 58% | – | >10 | + + + | times less active compared with suramin ([2]; T. brucei bloodstream forms): 10–100 times; GI50 [2, 10]: 0.63 to 0.78 µg/mL; GI50 ([1]; Leishmania major): 62.4 µM; times Vero cells are less sensitive compared with HL-60 cells (Vero cells [5]): 4.8 times; selectivity (Vero cells [5]): > 100; GI50 (Vero cells [6]): 361 µM
7 | CC(C)CCOC(=O)c1cc(O)c(O)c(O)c1 [Compound 6, Gallic acid isopentyl ester] | 100 µM (≈ 24 µg/mL) | ~3 µM | 10 µM (≈ 2.4 µg/mL) | 90.4 ± 21.6 µM | > 100 µM | 45% | – | >10 | + + + | times less active compared with suramin ([2]; T. brucei bloodstream forms): 10–100 times; GI50 [2, 10]: 0.63 to 0.78 µg/mL
8 | CCCCCOC(=O)c1cc(O)c(O)c(O)c1 [Compound 7, Gallic acid pentyl ester] | > 100 µM | 32.8 ± 0.9 µM | 100 µM (≈ 24 µg/mL) | > 100 µM | > 100 µM | 0% | >3.0 | >1 | + + + | cytotoxicity against the human cells [3]: no cytotoxicity; leishmanicidal activity [1]: no leishmanicidal activity; melting point: 94 to 96 °C
9 | COCCOC(=O)c1cc(O)c(O)c(O)c1 [Compound 8, Gallic acid 2-methoxyethyl ester] | 100 µM (≈ 22.8 µg/mL) | 5.6 ± 1.3 µM | 100 µM (≈ 22.8 µg/mL) | 99.2 ± 9.4 µM | > 100 µM | 47% | 17.7 | >1 | + + + | melting point: 152 to 153 °C
10 | Cc1ccc(C(=O)Nc2ccc(S(=O)(=O)O)c3cc(S(=O)(=O)O)cc(S(=O)(=O)O)c23)cc1NC(=O)c1cccc(NC(=O)Nc2cccc(C(=O)Nc3cc(C(=O)Nc4ccc(S(=O)(=O)O)c5cc(S(=O)(=O)O)cc(S(=O)(=O)O)c45)ccc3C)c2)c1 [Suramin, reference compound] | – | 0.04 µM | 1 µM (≈ 1.3 µg/mL) | > 100 µM | > 100 µM | – | >2500 | >100 | – | times higher GI50 ratio than gallic acid alkyl esters 4, 5, and 6 (HL-60 / T. brucei): 100 times; times higher MIC ratio than gallic acid alkyl esters 4, 5, and 6 (HL-60 / T. brucei): 10 times
11 | CC(C)CCOC(=O)C=Cc1ccc(O)c(O)c1 [caffeic acid isopentyl ester, 3,4-dihydroxycinnamic (caffeic) acid isopentyl ester] | – | – | – | – | – | – | – | – | – | GI50 (T. brucei; [11]): 1.24 µM
12 | O=C(/C=C/c1ccc(O)c(O)c1)OCCc1ccccc1 [caffeic acid phenethyl ester] | – | – | – | – | – | – | – | – | – | GI50 (T. brucei; trypanocidal activity): 0.046 µM
13 | CCCCCCCCCCCCOC(=O)c1cc(O)c(O)c(O)c1 [dodecyl gallate] | – | – | – | – | – | – | – | – | – | GI50 [7]: 1 µM
14 | CCOC(=O)C=Cc1ccc(O)c(OC)c1 [ferulic acid ethyl ester, 3-methoxy-4-hydroxycinnamic (ferulic) acid ethyl ester] | – | – | – | – | – | – | – | – | – | GI50 (T. brucei; [11]): 110 µM
15 | O=C(O)c1cc(O)c(O)c(O)c1 [gallic acid, 3,4,5-trihydroxybenzoic acid] | – | – | – | – | – | – | – | – | – | GI50 (T. brucei; trypanocidal activity of the reactant): 14.2 µM
16 | CCCCCCCCOC(=O)c1cc(O)c(O)c(O)c1 [octyl gallate] | – | – | – | – | – | – | – | – | – | GI50 [7]: 1.5 µM
